The structures appear in SMILES notation.

Assay [1] deals with Human recombinant AMPK enzyme. The assay is described as follows: AMPK screening assay, AlphaScreen technology. Type of assay: biochemical. As to conditions: 25 mM Tris/HCl buffer pH 7.5, 100 μM ATP, AMARAA peptide substrate, 30 min room temperature, activator concentration not given. As to the method:
(§1) Human recombinant AMPK enzyme was expressed in E. Coli and was reactivated in vitro by LKB1 prior to enzyme activity determination.
(§2) AMPK enzyme activities were assayed by using 2 fluorescent based technologies (AlphaScreen/Delfia) and were carried out in microtiter plates (containing 25 mM Tris/HCl buffer, pH 7.5 with 100 μM ATP/50 mM Hepes buffer, pH 7.4 with 125 μM ATP respectively) in the presence of a synthetic peptide substrate (AMARAASAAALARRR, the “AMARAA” peptide) and activators in serial dilutions. Reactions were initiated by the addition of AMPK (50-100 ng). Following mixing, the plates were incubated for 30 min at room temperature. Enzyme activity was assayed by using an anti-phosphoserine antibody to measure the quantity of phosphate incorporated into the AMARAA. Activity is expressed in % of control (basal activity): […]
A general note: Alpha assays give light when donor and acceptor beads are brought close together.

Assay [2] concerns Human recombinant AMPK enzyme. The assay is described as follows: AMPK screening assay, Delfia technology. It counts as biochemical. As to conditions: 50 mM Hepes buffer pH 7.4, 125 μM ATP, AMARAA peptide substrate, 30 min room temperature, activator concentration not given. The method, then: as §1, §2
In assay [3] the test system is ob/ob and db/db mice. Particulars: 8 day administration; both ob/ob and db/db mice; cited from earlier work.

Consider `O=c1[nH]c2scc(C3CC3)c2c(O)c1-c1ccccc1` [Compound 208, 3-Cyclopropyl-4-hydroxy-5-phenyl-7H-thieno[2,3-b]pyridin-6-one], for which the “α-Screen: AMPK activity expressed in % of control (basal activity)” value (“α-Screen: AMPK activity expressed in %” for short) in assay [1] is reported as 154 % of control. In addition, the “Delfia: AMPK activity expressed in % of control (basal activity)” value (shortened to “Delfia: AMPK activity expressed in %”) in assay [2] was 163 % of control. On to `NC(=O)c1ncn([C@@H]2O[C@H](CO)[C@@H](O)[C@H]2O)c1N` [AICAR], for which the “reduction of blood glucose” value in assay [3] is reported as 35%. With `O=c1[nH]c2sc(Br)cc2c(O)c1-c1ccccc1` [Compound 203, 2-Bromo-4-hydroxy-5-phenyl-7H-thieno[2,3-b]pyridin-6-one], in assay [1], the “α-Screen: AMPK activity expressed in %” value was 286 % of control. In addition, the “Delfia: AMPK activity expressed in %” value in assay [2] is 271 % of control. On the same counts, the results for `CCC(C)c1csc2[nH]c(=O)c(-c3ccccc3)c(O)c12` (centres unmarked) [Compound 209] are 156 % of control and 201 % of control. In the case of `CC(C)c1c(Cl)sc2[nH]c(=O)c(-c3ccccc3)c(O)c12` [Compound 204, 2-Chloro-4-hydroxy-3-isopropyl-5-phenyl-7H-thieno[2,3-b]pyridin-6-one], the “α-Screen: AMPK activity expressed in %” value in assay [1] is on record as 181 % of control. Further, in assay [2], the “Delfia: AMPK activity expressed in %” value is given as 233 % of control.

For the compound `CCc1cc2c(O)c(-c3ccccc3)c(=O)[nH]c2s1` [Compound 201, 2-Ethyl-4-hydroxy-5-phenyl-7H-thieno[2,3-b]pyridin-6-one], in assay [1], the “α-Screen: AMPK activity expressed in %” value is reported as 150 % of control. The “Delfia: AMPK activity expressed in %” value in assay [2] is given as 219 % of control. On the same counts, the results for `Cc1c(Br)sc2[nH]c(=O)c(-c3ccccc3)c(O)c12` [Compound 202, 2-Bromo-4-hydroxy-3-methyl-5-phenyl-7H-thieno[2,3-b]pyridin-6-one] are 322 % of control and 313 % of control.

For the compound `CCC(C)c1c(Cl)sc2[nH]c(=O)c(-c3ccccc3)c(O)c12` (centres unmarked) [Compound 206], the “α-Screen: AMPK activity expressed in %” value in assay [1] is given as 269 % of control. For the same compound, the “Delfia: AMPK activity expressed in %” value in assay [2] was 164 % of control. In the case of `Cc1sc2[nH]c(=O)c(-c3ccccc3)c(O)c2c1C` [Compound 200, 4-Hydroxy-2,3-dimethyl-5-phenyl-7H-thieno[2,3-b]pyridin-6-one], the “α-Screen: AMPK activity expressed in %” value in assay [1] was 154 % of control. For the same compound, the “Delfia: AMPK activity expressed in %” value in assay [2] is listed as 232 % of control. On the same counts, the results for `O=c1[nH]c2sc3c(c2c(O)c1-c1ccccc1)CCCC3` [Compound 210, 4-Hydroxy-3-phenyl-5,6,7,8-tetrahydro-1-benzothieno[2,3-b]pyridin-2(1H)-one] are 176 % of control and 286 % of control. In the case of `CC(C)c1csc2[nH]c(=O)c(-c3ccccc3)c(O)c12` [Compound 207, 4-Hydroxy-3-isopropyl-5-phenyl-7H-thieno[2,3-b]pyridin-6-one], the “α-Screen: AMPK activity expressed in %” value in assay [1] is 131 % of control. Besides, the “Delfia: AMPK activity expressed in %” value in assay [2] was 169 % of control. On the same counts, the results for `O=c1[nH]c2sc(Cl)c(C3CC3)c2c(O)c1-c1cccc(Oc2ccccc2)c1` [Compound 205, 2-chloro-3-cyclopropyl-4-hydroxy-5-(3-phenoxy-phenyl)-7H-thieno[2,3-b]pyridine-6-one] are 166 % of control and 151 % of control.

These data come from patent US20090105293A1, “USE OF THIENOPYRIDONE DERIVATIVES AS AMPK ACTIVATORS AND PHARMACEUTICAL COMPOSITIONS CONTAINING THEM” (priority 2005, published 2009).
